Drawing on patent publication US12240844B2 (Voronoi, Inc., priority 2019, dated 2025), this text covers IC50 for 17 molecules.

Holding throughout (format): biochemical
Experiment [1] has as its target LRRK2 (G2019S) (Homo sapiens, UniProt Q5S007, G2019S). Description: LRRK2 G2019S enzyme inhibition, ADP-Glo kinase assay. Set-up: purchased SignalChem L10-12GG. In outline:
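Purified human LRRK2 G2019S (16 ng) with 25 μM ATP and 0.2 μg substrate, 2 h at 25° C in 40 mM Tris-HCl pH 7.4, 20 mM MgCl2, 0.5 mg/ml BSA, 50 μM DTT; compound at 12 final concentrations from 50 μM downward. ADP-Glo luminescence versus solvent control gave IC50 (nM).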
(ADP-Glo turns the ADP formed in a reaction into a luminescent signal.)

The target in experiment [2] is T1, human GST-CLK1 (129-end) (Homo sapiens, UniProt P49759).
T1 construct: purified human GST-CLK1 (129-end, Signalchem) enzyme; GST; purchased Signalchem
Description: GST-CLK1 enzyme inhibition, ADP-Glo kinase assay. Particulars: ATP 10 uM. In outline:
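GST-CLK1 (129-end, 3 ng) reacted with 10 uM ATP and substrate in 40 mM Tris-HCl pH 7.4, 20 mM MgCl2, 0.5 mg/mL BSA, 50 uM DTT, 1 h at 25° C. ADP-Glo luminescence normalised to solvent control; IC50 from triplicate data.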

Experiment [3] has as its target LRRK2 (Homo sapiens, UniProt Q5S007). Description: LRRK2 enzyme inhibition, ADP-Glo kinase assay. More on the design: purchased Invitrogen PR8604B. How it is done:
In order to evaluate the inhibitory activity of the compounds according to the present invention on LRRK2, LRRK2 (G2019S), DYRK1, CLK1 and TTK kinases, the following experiment was performed.
Example compounds were reacted with the purified human LRRK2 (Invitrogen #PR8604B) enzyme to evaluate the enzyme inhibitory ability as follows. The reaction buffer was used as the composition of 40 mM Tris-HCl pH7.4, 20 mM MgCl2, 0.5 mg/ml BSA and 50 μM DTT, and the reaction of all test materials was performed on the reaction buffer. The compound was diluted with 10 mM DMSO stock in 12 steps by a serial dilution method, and the enzyme activity was measured at the final compound concentrations of 50, 10, 2, 0.4, 0.08, 0.016, 0.0032, 0.00064, 0.000128, 0.0000256, 0.00000512 and 0.000001024 μM. In the test, the human LRRK2 (25 ng) enzyme was reacted with the purified ATP (10 μM) and an enzyme substrate ([…]) at 25° C. for 2 hours, and then the enzyme activity was identified using the in vitro ADP-Glo™ kinase assay (promega). The enzyme activity reaction liquid, an ADP-Glo reaction liquid and an enzyme potency detection solution were reacted in a ratio of 2:2:1, and the degree of inhibition of enzyme activity was measured by Luminescence. The degree of inhibition of enzyme activity according to the treatment concentrations of the respective compounds was calculated based on the fluorescence of the enzyme activity of a solvent control group that was not treated with the compound, where the concentration of each compound to inhibit enzyme activity inhibition by 50% was determined as an IC50 (nM) value and obtained using Prism (Version 5.01, GraphPad) software.
In the table below, the following designations were used for the evaluation of enzyme inhibitory ability.

Experiment [4] deals with T2, human GST-DYRK1A (full length) (Homo sapiens, UniProt Q13627).
T2 construct: purified human GST-DYRK1A (full length, Thermo scientifics) enzyme; GST; purchased Thermo scientifics
Put plainly: GST-DYRK1A enzyme inhibition, ADP-Glo kinase assay. Particulars: read-out: DYRK1 IC50. The method in brief:
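Full-length human GST-DYRK1A (10 ng) incubated with 10 uM ATP and specific substrate for 1 h at 25° C in 40 mM Tris-HCl pH 7.4, 20 mM MgCl2, 0.5 mg/mL BSA, 50 uM DTT. ADP formation read by ADP-Glo luminescence; IC50 (nM) versus solvent control, triplicate.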

Usually IC50 stands for the concentration at which inhibition is half-maximal.

Chain of LRRK2 (Q5S007 970-2527 limits assumed): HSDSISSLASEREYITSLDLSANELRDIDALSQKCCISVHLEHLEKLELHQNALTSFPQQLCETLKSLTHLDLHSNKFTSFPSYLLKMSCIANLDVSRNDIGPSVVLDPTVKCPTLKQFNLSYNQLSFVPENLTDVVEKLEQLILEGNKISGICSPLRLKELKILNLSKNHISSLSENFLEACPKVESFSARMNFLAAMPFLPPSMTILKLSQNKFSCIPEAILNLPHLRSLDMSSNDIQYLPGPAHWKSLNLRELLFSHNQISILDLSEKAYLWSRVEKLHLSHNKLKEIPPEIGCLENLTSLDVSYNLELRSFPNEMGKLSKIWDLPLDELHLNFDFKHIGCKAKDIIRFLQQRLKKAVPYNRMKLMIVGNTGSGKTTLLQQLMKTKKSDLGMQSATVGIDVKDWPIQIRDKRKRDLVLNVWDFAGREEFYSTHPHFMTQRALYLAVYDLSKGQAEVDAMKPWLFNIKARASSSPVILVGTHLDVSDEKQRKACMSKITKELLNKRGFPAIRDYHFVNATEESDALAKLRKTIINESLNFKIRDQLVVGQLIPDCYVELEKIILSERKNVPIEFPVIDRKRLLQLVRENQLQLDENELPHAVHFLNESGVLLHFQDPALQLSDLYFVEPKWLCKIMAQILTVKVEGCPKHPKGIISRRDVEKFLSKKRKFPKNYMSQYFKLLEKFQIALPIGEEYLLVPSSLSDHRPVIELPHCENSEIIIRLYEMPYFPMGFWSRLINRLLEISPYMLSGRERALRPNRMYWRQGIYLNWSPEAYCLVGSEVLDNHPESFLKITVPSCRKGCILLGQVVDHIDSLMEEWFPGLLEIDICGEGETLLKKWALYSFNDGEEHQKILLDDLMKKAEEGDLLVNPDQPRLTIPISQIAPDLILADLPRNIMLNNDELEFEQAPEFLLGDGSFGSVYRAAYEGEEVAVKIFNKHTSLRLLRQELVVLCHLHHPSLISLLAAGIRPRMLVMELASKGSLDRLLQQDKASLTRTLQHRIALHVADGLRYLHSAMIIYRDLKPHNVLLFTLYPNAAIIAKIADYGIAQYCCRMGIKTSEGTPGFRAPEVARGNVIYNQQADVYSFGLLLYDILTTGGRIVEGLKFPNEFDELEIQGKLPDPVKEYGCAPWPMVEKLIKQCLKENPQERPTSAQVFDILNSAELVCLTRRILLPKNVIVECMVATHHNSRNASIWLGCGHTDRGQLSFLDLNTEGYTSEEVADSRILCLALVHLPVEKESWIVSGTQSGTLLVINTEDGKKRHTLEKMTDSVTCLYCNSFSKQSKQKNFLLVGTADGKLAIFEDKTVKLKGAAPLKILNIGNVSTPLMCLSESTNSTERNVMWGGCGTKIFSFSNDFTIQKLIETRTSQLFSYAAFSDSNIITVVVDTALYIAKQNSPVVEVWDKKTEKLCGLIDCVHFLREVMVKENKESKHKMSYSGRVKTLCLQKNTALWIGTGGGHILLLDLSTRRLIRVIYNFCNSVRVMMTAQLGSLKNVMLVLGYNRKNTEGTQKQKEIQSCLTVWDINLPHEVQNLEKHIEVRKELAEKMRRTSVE
Chain of LRRK2 (G2019S) (Q5S007 970-2527 G2019S limits assumed): as the sequence (Q5S007 970-2527 limits assumed) above, with G1050S counted along it
T1 sequence (P49759 129-484 limits assumed): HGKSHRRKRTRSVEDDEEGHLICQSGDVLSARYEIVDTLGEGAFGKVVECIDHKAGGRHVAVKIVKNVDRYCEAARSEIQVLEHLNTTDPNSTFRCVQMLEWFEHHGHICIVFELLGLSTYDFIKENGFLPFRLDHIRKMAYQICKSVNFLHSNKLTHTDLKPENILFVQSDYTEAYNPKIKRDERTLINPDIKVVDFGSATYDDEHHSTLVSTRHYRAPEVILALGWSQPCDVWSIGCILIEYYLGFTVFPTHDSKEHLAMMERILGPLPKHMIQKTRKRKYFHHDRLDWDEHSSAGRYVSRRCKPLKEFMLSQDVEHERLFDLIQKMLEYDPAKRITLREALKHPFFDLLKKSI

With `COc1cc(S(C)(=O)=O)ccc1Nc1cc(NC2CCC2)c2c(Cl)c[nH]c2n1` [Example 85, 3-chloro-N^4-cyclobutyl-N^6-(2-methoxy-4-(methylsulfonyl)phenyl)-1H-pyrrolo[2,3-b]pyridine-4,6-diamine], the IC50 in experiment [1] lay in the range of 301 to 1000 nM; in experiment [2] it was 301 to 1000 nM; in experiment [3], 301 to 1000 nM; in experiment [4], 101 to 300 nM.

For `CS(=O)(=O)CCNc1cc(Nc2ccc(C(=O)N3CCOCC3)c3c2OCCO3)nc2[nH]cc(C#N)c12` [Example 110, 4-((2-(methylsulfonyl)ethyl)amino)-6-((8-(morpholine-4-carbonyl)-2,3-dihydrobenzo[b] [1,4]dioxin-5-yl)amino)-1H-pyrrolo[2,3-b]pyridine-3-carbonitrile], the IC50 was less than 100 nM in experiment [1], 101 to 300 nM in experiment [2], less than 100 nM in experiment [3] and 301 to 1000 nM in experiment [4].

`COc1cc(S(C)(=O)=O)ccc1Nc1cc(NCC(C)C)c2c(C(F)(F)F)c[nH]c2n1` [Example 190, N^4-isobutyl-N^6-(2-methoxy-4-(methylsulfonyl)phenyl)-3-(trifluoromethyl)-1H-pyrrolo[2,3-b]pyridine-4,6-diamine]: the IC50 in experiment [1], in experiment [2], in experiment [3] and in experiment [4] was 301 to 1000 nM throughout.

For the molecule `CCNc1cc(Nc2ccc(C(=O)N3CCOCC3)c3c2OCCO3)nc2[nH]cc(C#N)c12` [Example 107, 4-(ethylamino)-6-((8-(morpholine-4-carbonyl)-2,3-dihydrobenzo[b] [1,4]dioxin-5-yl)amino)-1H-pyrrolo[2,3-b]pyridine-3-carbonitrile], the half-maximal inhibitory concentration (IC50) was less than 100 nM in experiment [1], 301 to 1000 nM in experiment [2], less than 100 nM in experiment [3] and 301 to 1000 nM in experiment [4].

`CCNc1cc(Nc2ccc(P(C)(C)=O)cc2OC)nc2[nH]cc(C(F)(F)F)c12` [Example 209, (4-((4-(ethylamino)-3-(trifluoromethyl)-1H-pyrrolo[2,3-b]pyridin-6-yl)amino)-3-methoxyphenyl) dimethylphosphine oxide]: the IC50 in experiment [1] was less than 100 nM; in experiment [2], 301 to 1000 nM; in experiment [3], less than 100 nM; in experiment [4] it was 101 to 300 nM.

For the molecule `CCNc1cc(Nc2ccc(C(=O)N3CCC(N4CCOCC4)CC3)c3c2OCCO3)nc2[nH]cc(C#N)c12` [Example 113, 4-(ethylamino)-6-((8-(4-morpholinopiperidine-1-carbonyl)-2,3-dihydrobenzo [b] [1,4]dioxin-5-yl)amino)-1H-pyrrolo[2,3-b]pyridine-3-carbonitrile], the IC50 in experiment [1] was less than 100 nM; in experiment [2], less than 100 nM; in experiment [3], less than 100 nM; in experiment [4] it was 301 to 1000 nM.

For the molecule `N#Cc1c[nH]c2nc(Nc3ccc(C(=O)N4CCC(N5CCOCC5)CC4)c4c3OCCO4)cc(NC3CCC3)c12` [Example 117, 4-(cyclobutylamino)-6-((8-(4-morpholinopiperidine-1-carbonyl)-2,3-dihydrobenzo[b] [1,4]dioxin-5-yl)amino)-1H-pyrrolo[2,3-b]pyridine-3-carbonitrile], the half-inhibitory concentration (IC50) is less than 100 nM in experiment [1], less than 100 nM in experiment [2], less than 100 nM in experiment [3] and 301 to 1000 nM in experiment [4].

On to `CCCNc1cc(Nc2ccc(C(=O)N3CCC(N4CCOCC4)CC3)c3c2OCCO3)nc2[nH]cc(C#N)c12` [Example 114, 6-((8-(4-morpholinopiperidine-1-carbonyl)-2,3-dihydrobenzo [b] [1,4]dioxin-5-yl)amino)-4-(propylamino)-1H-pyrrolo[2,3-b]pyridine-3-carbonitrile], for which the half-maximal inhibitory concentration (IC50) in experiment [1], in experiment [2], in experiment [3] and in experiment [4] was less than 100 nM in each case.

In the case of `COc1cc(S(C)(=O)=O)ccc1Nc1cc(NC2CCCCC2)c2c(C(F)(F)F)c[nH]c2n1` [Example 182, N^4-cyclohexyl-N^6-(2-methoxy-4-(methylsulfonyl)phenyl)-3-(trifluoromethyl)-1H-pyrrolo[2,3-b]pyridine-4,6-diamine], the half-maximal inhibitory concentration (IC50) in experiment [1], in experiment [2], in experiment [3] and in experiment [4] was 301 to 1000 nM in each case.

As to `COc1cc(S(C)(=O)=O)ccc1Nc1cc(NC2CCC2)c2c(C(F)(F)F)c[nH]c2n1` [Example 204, N^4-cyclobutyl-N^6-(2-methoxy-4-(methylsulfonyl)phenyl)-3-(trifluoromethyl)-1H-pyrrolo[2,3-b]pyridine-4,6-diamine], the IC50 in experiment [2], in experiment [3] and in experiment [4] was 301 to 1000 nM throughout.

In the case of `CCN(C)c1cc(Nc2ccc(C(=O)N3CCC(N4CCOCC4)CC3)c3c2OCCO3)nc2[nH]cc(C(F)(F)F)c12` [Example 51, (8-((4-(ethyl(methyl)amino)-3-(trifluoromethyl)-1H-pyrrolo[2,3-b]pyridin-6-yl)amino)-2,3-dihydrobenzo [b] [1,4]dioxin-5-yl)(4-morpholinopiperidin-1-yl)methanone], the IC50 lay within 101 to 300 nM in experiment [2], 101 to 300 nM in experiment [3] and 301 to 1000 nM in experiment [4].

Regarding `COc1cc(P2(=O)CCN(C3CC3)CC2)ccc1Nc1cc(NC2CC2)c2c(C(F)(F)F)c[nH]c2n1` [Example 211, 1-cyclopropyl-4-(4-((4-(cyclopropylamino)-3-(trifluoromethyl)-1H-pyrrolo[2,3-b]pyridin-6-yl)amino)-3-methoxyphenyl)-1,4-azaphosphinane 4-oxide], the IC50 in experiment [2] was 301 to 1000 nM; in experiment [3], less than 100 nM; in experiment [4], 301 to 1000 nM.

With `COC[C@@H](C)Nc1cc(Nc2ccc(C(=O)N3CCOCC3)c3c2OCCO3)nc2[nH]cc(C(F)(F)F)c12` [Example 159, (R)-(8-((4-((1-methoxypropan-2-yl)amino)-3-(trifluoromethyl)-1H-pyrrolo[2,3-b]pyridin-6-yl)amino)-2,3-dihydrobenzo [b] [1,4]dioxin-5-yl)(morpholino) methanone], the 50% inhibitory concentration (IC50) in experiment [2] is less than 100 nM; in experiment [3] it was less than 100 nM; in experiment [4], 101 to 300 nM.

Turning to `CNc1cc(Nc2ccc(P3(=O)CCN(C4COC4)CC3)cc2OC)nc2[nH]cc(C#N)c12` [Example 142, 6-((2-methoxy-4-(1-(oxetan-3-yl)-4-oxido-1,4-azaphosphinan-4-yl)phenyl)amino)-4-(methylamino)-1H-pyrrolo[2,3-b]pyridine-3-carbonitrile], the IC50 is 301 to 1000 nM in experiment [2], less than 100 nM in experiment [3] and 101 to 300 nM in experiment [4].

Consider `CCOc1cc(Nc2ccc(C(=O)N3CCOCC3)c3c2OCCO3)nc2[nH]cc(C(F)(F)F)c12` [Example 231, (8-((4-ethoxy-3-(trifluoromethyl)-1H-pyrrolo[2,3-b]pyridin-6-yl)amino)-2,3-dihydrobenzo[b] [1,4]dioxin-5-yl)(morpholino) methanone], for which the IC50 was 301 to 1000 nM in experiment [2], less than 100 nM in experiment [3] and 301 to 1000 nM in experiment [4].

Regarding `CCCNc1cc(Nc2ccc(C(=O)N3CCOCC3)c3c2OCCO3)nc2[nH]cc(C(F)(F)F)c12` [Example 174, morpholino(8-((4-(propylamino)-3-(trifluoromethyl)-1H-pyrrolo[2,3-b]pyridin-6-yl)amino)-2,3-dihydrobenzo[b] [1,4]dioxin-5-yl)methanone], the figures for the concentration for half-maximal inhibition (IC50) in experiment [2], in experiment [3] and in experiment [4] were 301 to 1000 nM, 101 to 300 nM and 301 to 1000 nM, respectively.

As for `CCNc1cc(Nc2ccc(P3(=O)CCN(C(C)=O)CC3)cc2OC)nc2[nH]cc(C#N)c12` [Example 145, 6-((4-(1-acetyl-4-oxido-1,4-azaphosphinan-4-yl)-2-methoxyphenyl)amino)-4-(ethylamino)-1H-pyrrolo[2,3-b]pyridine-3-carbonitrile], the 50% inhibitory concentration (IC50) was 301 to 1000 nM in experiment [2], less than 100 nM in experiment [3] and 101 to 300 nM in experiment [4].
